1 compound from publication PMC8567874, “Metronomic delivery of orally available pemetrexed-incorporated colloidal dispersions for boosting tumor-specific immunity” (Drug Delivery, 2021) can be followed below.

The structures appear in SMILES notation. Read-outs that look alike come from different tables or passages of the source.

Series [1] relates to LLC cell-bearing mice. As to the kind of experiment: In vivo antitumor efficacy in LLC cell-bearing mice. Also on record: species or system C57BL/6 mice. The protocol:
The in vivo dose-dependent antitumor effects of oral PMX/DL(1:1)-CD compared to PMX-IV were evaluated by inoculating LLC cells at a density of 1 × 10^6 cells/100 μL PBS (pH 7.4) into the right dorsal flanks of 6-week-old female C57BL/6 mice. The oral doses for PMX/DL(1:1)-CD with antitumor activities without toxic effects were determined based on our previous study (Maharjan et al., [2019]). […] The body weights and tumor volumes of all mice were measured every 3 days. Tumor volume was then calculated as a^2 × b × 0.52, where a and b were the width and length of the tumor, respectively. The mice were sacrificed and the tumor masses were measured 21 days after drug administration.

The subject of series [2] is CT26.CL25 cells. The series is described as follows: Immunoblotting of CRT and HMGB-1. Particulars: CT26.CL25, 300 µM, 48 h, western blot. In kind it is cell-based. The protocol:
CT26.CL25 cells (1 × 10^5 per well) cultured in 6-well plates were treated with 300 µM DL, 300 µM PMX or PMX/DL (equivalent 300 µM PMX) for 48 h. The cells were then lysed in RIPA buffer with protease and phosphatase inhibitors (GenDEPOT, Barker, TX, USA). Each sample was loaded with 20 µg of protein and fractionated using SDS-PAGE (Biosesang, Gyeonggi-do, South Korea), followed by wet transfer to nitrocellulose membrane (Bio-Rad Laboratories, Inc., Hercules, CA, USA). Anti-CRT, anti-HMGB-1, GAPDH rabbit mAb (Cell Signaling Technology, Danvers, MA, USA), and anti-rabbit IgG peroxidase (Sigma–Aldrich) antibodies were used.
(In general: In western blotting, separated proteins are transferred to a membrane and probed.)

The nature of series [3]: In situ single-pass rat intestinal perfusion. Type of series: in vivo. The conditions noted are these: other: in situ single-pass intestinal perfusion; for concentration at 15 min / concentration at 30 min / concentration at 45 min / concentration at 60 min / concentration at 75 min / concentration at 90 min / concentration at 105 min / concentration at 120 min: rat, outlet intestinal perfusate, 100 μg/mL, rat intestinal perfusion. The protocol: The in situ single-pass intestinal effective permeabilities (Peff) of PMX, PMX/DL(1:1), PMX/DL(1:2), PMX/DL(1:1)-CD, and PMX/DL(1:2)-CD were investigated in rats. The rats were fasted overnight for 12–16 h with free access to water before the experiment and then anesthetized by intramuscular injection of tiletamine·HCl–zolazepam mixture (1:1 [w/w]; 40 mg/kg). With the animal in the supine position, the abdominal cavity was opened using a midline longitudinal incision, and the intestine (duodenum, jejunum, and ileum) was exposed and subsequently intubated at the two ends with a polypropylene perfusion tube connected to a peristaltic pump (Harvard Apparatus, Holliston, MA, USA). After covering the entire excised area with a cotton pad soaked with warm normal saline, the cannulated intestinal segments were flushed with blank perfusion buffer at 37 °C for 30 min, at a constant flow rate of 0.5 mL/min, to remove residual intestinal contents. Then, drug solutions of PMX, PMX/DL(1:1), PMX/DL(1:2), PMX/DL(1:1)-CD, or PMX/DL(1:2)-CD (equivalent to 100 μg/mL PMX) were perfused through the intestinal lumen at 37 °C and a constant flow rate of 0.2 mL/min. After allowing 30 min to achieve a steady-state, outlet perfusate was collected every 15 min for 120 min. In addition, to assess the reliability of the perfusion study, 100 μg/mL fluorescein diluted in perfusion buffer was perfused separately under the same conditions and the collected samples were analyzed at excitation/emission wavelengths of 494/512 nm using a microplate reader (PerkinElmer multimode plate reader; PerkinElmer, Waltham, MA, USA) as a low-permeability marker. During the experiment, all animals were kept on heated pads under a heat lamp to maintain a normal body temperature. At the end of the experiment, the lengths and radii of the cannulated intestinal segments were measured, taking care to avoid stretching them. The collected samples were then filtered using 0.45-μm PVDF filters and stored at −20 °C before analyses. The outlet concentration of PMX in the perfusate was analyzed by HPLC as described above. In addition, the errors caused by rat intestinal water absorption and secretion during perfusion were corrected by the net water flux (ratio of the […] perfusate flows, Qout/Qin) and the corrected drug concentration in perfusate for each formulation was calculated based on the following equation (i.e. gravimetric method): Cout,corr = Cout × (Qout/Qin), where Cout,corr is the corrected outlet PMX concentration (µg/mL), Cout is the PMX outlet concentration (µg/mL), Qin (mL/min) is the flow rate entering the intestine, and Qout (mL/min) is the measured perfusate exit flow (net weight/15 min, assumed density of 1.0 g/mL) for the specified time interval. After correction, the Peff was calculated using the equation: Peff = Qin/A × ln(Cout,corr/Cin), where A is the intestinal area available for absorption (2πrl) based on its length (l) and radius (r).

Series [4] is described as follows: Octanol/water apparent partition coefficient. The conditions noted are these: n = 4, read-out: Log P (logarithm of the octanol/water partition coefficient). In kind it is physicochemical. From the text: ^aLogarithm of the octanol/water partition coefficient. Each value represents the mean ± standard deviation (n = 4).
In series [5] the test system is CT26.CL25 tumor-bearing mice. Type of series: in vivo. Particulars: 27 days after drug treatment, IV 150 mg/kg PMX.
Description: To investigate the antitumor efficacy of oral PMX/DL(1:1)-CD and IV PMX given in combination with intraperitoneal aPD-1, 1 × 10^6 of CT26.CL25 cells in 100 µL of PBS (pH 7.4) were subcutaneously inoculated into each BALB/c mouse. When the average tumor volume reached 50–70 mm^3, mice were randomly divided into seven groups (10 mice per group): control (untreated), PMX-IV (150) (IV administration of 150 mg/kg PMX once every 3 weeks), aPD-1 (10) (intraperitoneal administration of 10 mg/kg aPD-1 once every 3 days), PMX-Oral (20) (once-daily oral administration equivalent to 20 mg/kg PMX), PMX/DL-CD (20) [once-daily oral administration PMX/DL(1:1)-CD equivalent to 20 mg/kg PMX], PMX-IV (150) + aPD-1 (10) (combination of IV administration of 150 mg/kg PMX once every 3 weeks, and intraperitoneal administration of 10 mg/kg aPD-1 once every 3 days), and PMX/DL-CD (20) + aPD-1 (10) (a combination of once-daily oral administration of PMX/DL(1:1)-CD equivalent to 20 mg/kg PMX and intraperitoneal administration of 10 mg/kg aPD-1 once every 3 days). During treatments, body weights and tumor volumes of mice in all seven groups were monitored once every 3 days, for 27 days. Tumor volumes in each mouse were calculated based on the following formula: 0.52 × a^2 × b, where a and b were the tumor widths and lengths, respectively.
[6] abbreviates: read-out: Corrected outlet PMX concentration (Cout,corr).
[7] abbreviates: read-out: Outlet concentration of PMX (Cout).

Consider `Nc1nc2[nH]cc(CCc3ccc(C(=O)N[C@@H](CCC(=O)O)C(=O)O)cc3)c2c(=O)[nH]1` [PMX, Pemetrexed], for which the “Antitumor efficacy compared to the control group” value in series [1] (IV 150 mg/kg PMX once every 3 weeks) turned out to be 60.9%. The “Body weights compared to the control group” value in series [1] (repeated administration for 3 weeks, all dose groups) is reported as “did not change significantly”. In addition, the “CRT- and HMGB-1-protein content compared to untreated and DL-treated cells” value in series [2] was “higher”. The Papp at 120 min, 100 μg/mL in series [3] (rat intestine, n = 4, read-out: Effective permeability (Peff)) stood at 83 ± 4.4 ×10⁻⁶ cm/s. In addition, in series [3] (setting [6]), the concentration at 15 min was 93.8 ± 2.73 µg/mL, the concentration at 30 min is 96 ± 1.36 µg/mL, the concentration at 45 min worked out at 94.1 ± 0.46 µg/mL and the concentration at 60 min is 95.4 ± 0.19 µg/mL. Moreover, in series [3] (setting [6]), the concentration at 75 min was 95.8 ± 0.87 µg/mL, the concentration at 90 min turned out to be 96.5 ± 0.54 µg/mL, the concentration at 105 min came out at 95.8 ± 0.27 µg/mL and the concentration at 120 min is 96.4 ± 1.52 µg/mL. Also, in series [3] (setting [7]), the concentration at 15 min was 93.1 ± 1.73 µg/mL, the concentration at 30 min came to 93.2 ± 0.04 µg/mL, the concentration at 45 min amounted to 92.5 ± 0.51 µg/mL and the concentration at 60 min worked out at 94.9 ± 0.19 µg/mL. Besides, in series [3] (setting [7]), the concentration at 75 min was found to be 94.7 ± 1.19 µg/mL, the concentration at 90 min is 95.3 ± 0.87 µg/mL, the concentration at 105 min is 94.7 ± 1.92 µg/mL and the concentration at 120 min is 94.7 ± 1.82 µg/mL. In addition, the logP in series [4] was -1.14 ± 0.01. In series [5], the “Mice alive (survival)” value came out at 50%.
